Assays:
BT-474 = test: Cell viability assay (CellTiter Glo), BT-474; assay type: cell-based; settings: Homo sapiens; BT-474 cells, 72 hours, CellTiter Glo; read-out: IC50, cell viability, BT-474
A431 = test: Cell viability assay (CellTiter Glo), A431; assay type: cell-based; settings: Homo sapiens, A-431, A431 cells, 72 hours
Ba/F3 ERBB2 wt = Ba/F3 ERBB2 wt (Homo sapiens, UniProt P04626); test: Cell viability assay, Ba/F3 ERBB2 wt; assay type: cell-based, mouse; settings: Ba/F3 ERBB2 wt cells, 72 hours, CellTiter Glo; read-out: IC50, cell viability, Ba/F3 ERBB2 wt
Procedure: (§1) Cells were treated with compounds, and cell viability was measured as a metric of kinase inhibition.
(§2) The Ba/F3 cell line is IL-3-dependent mouse cell line derived from the C3H mouse strain. Ba/F3 cell lines were engineered to express human ERBB2 or EGFR kinases, rendering the cells IL-3 independent. The lines were generated via retroviral transduction utilizing a Moloney murine leukemia virus (MMLV) promoter, and constructs are stably integrated into the cell genome. The sequences of the ERBB2 and EGFR genes used were NCBI Reference Sequences NM_004448.3 and NM_005228.3, respectively.
(§3) Similarly, Ba/F3 cell lines engineered to express EGFR, ERBB2, or ERBB2 mutants were grown, harvested, counted and seeded at 3000 cells per well in 96-well plates. A subset of wells contained media only (low control, “LC”).
(§4) Table B1 provides the growth media and number of cells seeded per well for the each cell line.
(§5) Plates were placed in a 37° C., 5% CO2 incubator for 72 hours. Plates were then removed from the incubator and equilibrated for 15 minutes at room temperature. 40 μl of CellTiter Glo reagent (Promega) was added to measure the relative level of metabolically active cells by quantifying intracellular ATP concentrations. Plates were incubated for 30 minutes at room temperature, and luminescence was measured. Percent viability was normalized to a vehicle control only using the following formula: % viability=100×(Lumsample−LumLC)/(LumHC−Lum^LC). Graphical curves were fitted using a nonlinear regression model with a sigmoidal dose response.

[1] = biological target: Ba/F3 ERBB2 A775_G776insYVMA (Homo sapiens, UniProt P04626, DUP772-775, cells depend on it); test: Cell viability assay, Ba/F3 ERBB2 A775_G776insYVMA; assay type: cell-based, mouse; settings: Ba/F3 ERBB2 A775_G776insYVMA cells, 72 hours, CellTiter Glo; Tables B2-B4; read-out: IC50, cell viability, Ba/F3 ERBB2 A775_G776insYVMA
How it was run: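 IL-3-independent Ba/F3 lines stably expressing the human ERBB2 insertion mutants were seeded at 3000 cells/well and exposed to compounds for 72 h at 37 °C, 5% CO2. Viability was read as ATP by CellTiter-Glo luminescence. Curves were fitted by sigmoidal nonlinear regression.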

Ba/F3 ERBB2-G776VC = Ba/F3 ERBB2-G776VC (Homo sapiens, UniProt P04626, DELINS776-776VC, cells depend on it); test: Cell viability assay, Ba/F3 ERBB2-G776VC; assay type: cell-based, mouse; settings: 72 hours, CellTiter Glo, read-out: IC50, cell viability, Ba/F3 ERBB2-G776VC
Procedure: as §1, §2, §3, §4, §5

[2] = biological target: Ba/F3 ERBB2-P780_Y781insGSP (Homo sapiens, UniProt P04626, DUP778-780, cells depend on it); test: Cell viability assay, Ba/F3 ERBB2-P780_Y781insGSP; assay type: cell-based, mouse; settings: 72 hours, CellTiter Glo, read-out: IC50, cell viability, Ba/F3 ERBB2-P780_Y781insGSP
Procedure: as §1, §2, §3, §4
as §5, with “Percent viability was normalized to a vehicle control only using the following formula: % viability=100×(Lumsample−LumLC)/(LumHC−Lum^LC).” left out

[3] = biological target: Ba/F3 ERBB2-V777_G778insGC (Homo sapiens, UniProt P04626, INS778CG, cells depend on it); test: Cell viability assay, Ba/F3 ERBB2-V777_G778insGC; assay type: cell-based, mouse; settings: 72 hours, CellTiter Glo, read-out: IC50, cell viability, Ba/F3 ERBB2-V777_G778insGC
Procedure: as §1, §2, §3, §4, §5

Ba/F3 ERBB2-V777L = Ba/F3 ERBB2-V777L (Homo sapiens, UniProt P04626, V777L, cells depend on it); test: Cell viability assay, Ba/F3 ERBB2-V777L; assay type: cell-based, mouse; settings: 72 hours, CellTiter Glo, read-out: IC50, cell viability, Ba/F3 ERBB2-V777L
Procedure: as §1, §2, §3, §4, §5

Ba/F3 ERBB2-T798M = Ba/F3 ERBB2-T798M (Homo sapiens, UniProt P04626, T798M, cells depend on it); test: Cell viability assay, Ba/F3 ERBB2-T798M; assay type: cell-based, mouse; settings: 72 hours, CellTiter Glo, read-out: IC50, cell viability, Ba/F3 ERBB2-T798M
Procedure: as §1, §2, §3, §4, §5

Ba/F3 ERBB2-L755S = Ba/F3 ERBB2-L755S (Homo sapiens, UniProt P04626, L755S, cells depend on it); test: Cell viability assay, Ba/F3 ERBB2-L755S; assay type: cell-based, mouse; settings: 72 hours, CellTiter Glo, read-out: IC50, cell viability, Ba/F3 ERBB2-L755S
Procedure: as §1, §2, §3, §4, §5

Ba/F3 ERBB2-L869R = Ba/F3 ERBB2-L869R (Homo sapiens, UniProt P04626, L869R, cells depend on it); test: Cell viability assay, Ba/F3 ERBB2-L869R; assay type: cell-based, mouse; settings: 72 hours, CellTiter Glo, read-out: IC50, cell viability, Ba/F3 ERBB2-L869R
Procedure: as §1, §2, §3, §4, §5

MDA-MB-175VII = test: Cell viability assay (CellTiter Glo), MDA-MB-175VII; assay type: cell-based; settings: Homo sapiens; MDA MB 175VII cells, 72 hours, CellTiter Glo; read-out: IC50, cell viability, MDA MB 175VII
Procedure: as §1, §2, §3, §4, §5

Ba/F3 EGFR wt = Ba/F3 EGFR wt (Homo sapiens, UniProt P00533); test: Cell viability assay, Ba/F3 EGFR wt; assay type: cell-based, mouse; settings: Ba/F3 EGFR wt cells, 72 hours, CellTiter Glo; read-out: IC50, cell viability, Ba/F3 EGFR wt
Procedure: as §1, §2, §3, §4
Plates were placed in a 37° C., 5% CO2 incubator for 72 hours. Plates were then removed from the incubator and equilibrated for 15 minutes at room temperature. 40 μl of CellTiter Glo reagent (Promega) was added to measure the relative level of metabolically active cells by quantifying intracellular ATP concentrations. Plates were incubated for 30 minutes at room temperature, and luminescence was measured. […]

Chain of Ba/F3 ERBB2-T798M (P04626 whole entry T798M): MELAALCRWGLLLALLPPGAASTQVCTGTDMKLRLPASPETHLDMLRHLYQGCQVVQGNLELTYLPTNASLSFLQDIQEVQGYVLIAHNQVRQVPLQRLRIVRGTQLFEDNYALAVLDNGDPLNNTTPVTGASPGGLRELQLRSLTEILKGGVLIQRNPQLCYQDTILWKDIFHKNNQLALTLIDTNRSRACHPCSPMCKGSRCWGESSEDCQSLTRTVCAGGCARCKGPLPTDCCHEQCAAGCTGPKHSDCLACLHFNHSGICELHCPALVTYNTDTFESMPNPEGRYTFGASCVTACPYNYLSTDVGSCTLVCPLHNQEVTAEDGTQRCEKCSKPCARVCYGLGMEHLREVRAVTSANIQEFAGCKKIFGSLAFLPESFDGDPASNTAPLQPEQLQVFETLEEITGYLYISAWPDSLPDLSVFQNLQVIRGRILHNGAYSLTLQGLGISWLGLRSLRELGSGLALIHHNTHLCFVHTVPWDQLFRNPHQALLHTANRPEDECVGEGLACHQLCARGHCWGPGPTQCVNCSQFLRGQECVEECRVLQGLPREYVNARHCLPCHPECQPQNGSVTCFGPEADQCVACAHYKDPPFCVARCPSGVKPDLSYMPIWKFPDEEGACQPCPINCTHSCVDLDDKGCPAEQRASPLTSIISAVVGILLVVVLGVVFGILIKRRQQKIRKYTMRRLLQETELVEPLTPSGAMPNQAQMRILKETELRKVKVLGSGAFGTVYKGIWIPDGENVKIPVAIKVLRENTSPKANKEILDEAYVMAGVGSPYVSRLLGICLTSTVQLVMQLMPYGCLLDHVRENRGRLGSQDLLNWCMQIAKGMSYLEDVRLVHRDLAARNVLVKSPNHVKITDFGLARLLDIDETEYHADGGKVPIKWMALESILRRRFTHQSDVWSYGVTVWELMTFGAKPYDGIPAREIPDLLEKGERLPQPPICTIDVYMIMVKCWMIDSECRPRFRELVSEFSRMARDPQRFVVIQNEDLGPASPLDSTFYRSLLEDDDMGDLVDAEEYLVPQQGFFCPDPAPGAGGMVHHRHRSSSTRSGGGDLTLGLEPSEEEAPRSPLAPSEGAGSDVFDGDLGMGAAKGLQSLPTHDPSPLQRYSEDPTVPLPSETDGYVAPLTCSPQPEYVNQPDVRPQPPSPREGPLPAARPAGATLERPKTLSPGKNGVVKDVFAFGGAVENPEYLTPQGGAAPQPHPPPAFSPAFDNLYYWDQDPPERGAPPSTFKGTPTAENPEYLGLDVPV
Chain of Ba/F3 ERBB2 A775_G776insYVMA (P04626 with tags, fused parts or gaps DUP772-775): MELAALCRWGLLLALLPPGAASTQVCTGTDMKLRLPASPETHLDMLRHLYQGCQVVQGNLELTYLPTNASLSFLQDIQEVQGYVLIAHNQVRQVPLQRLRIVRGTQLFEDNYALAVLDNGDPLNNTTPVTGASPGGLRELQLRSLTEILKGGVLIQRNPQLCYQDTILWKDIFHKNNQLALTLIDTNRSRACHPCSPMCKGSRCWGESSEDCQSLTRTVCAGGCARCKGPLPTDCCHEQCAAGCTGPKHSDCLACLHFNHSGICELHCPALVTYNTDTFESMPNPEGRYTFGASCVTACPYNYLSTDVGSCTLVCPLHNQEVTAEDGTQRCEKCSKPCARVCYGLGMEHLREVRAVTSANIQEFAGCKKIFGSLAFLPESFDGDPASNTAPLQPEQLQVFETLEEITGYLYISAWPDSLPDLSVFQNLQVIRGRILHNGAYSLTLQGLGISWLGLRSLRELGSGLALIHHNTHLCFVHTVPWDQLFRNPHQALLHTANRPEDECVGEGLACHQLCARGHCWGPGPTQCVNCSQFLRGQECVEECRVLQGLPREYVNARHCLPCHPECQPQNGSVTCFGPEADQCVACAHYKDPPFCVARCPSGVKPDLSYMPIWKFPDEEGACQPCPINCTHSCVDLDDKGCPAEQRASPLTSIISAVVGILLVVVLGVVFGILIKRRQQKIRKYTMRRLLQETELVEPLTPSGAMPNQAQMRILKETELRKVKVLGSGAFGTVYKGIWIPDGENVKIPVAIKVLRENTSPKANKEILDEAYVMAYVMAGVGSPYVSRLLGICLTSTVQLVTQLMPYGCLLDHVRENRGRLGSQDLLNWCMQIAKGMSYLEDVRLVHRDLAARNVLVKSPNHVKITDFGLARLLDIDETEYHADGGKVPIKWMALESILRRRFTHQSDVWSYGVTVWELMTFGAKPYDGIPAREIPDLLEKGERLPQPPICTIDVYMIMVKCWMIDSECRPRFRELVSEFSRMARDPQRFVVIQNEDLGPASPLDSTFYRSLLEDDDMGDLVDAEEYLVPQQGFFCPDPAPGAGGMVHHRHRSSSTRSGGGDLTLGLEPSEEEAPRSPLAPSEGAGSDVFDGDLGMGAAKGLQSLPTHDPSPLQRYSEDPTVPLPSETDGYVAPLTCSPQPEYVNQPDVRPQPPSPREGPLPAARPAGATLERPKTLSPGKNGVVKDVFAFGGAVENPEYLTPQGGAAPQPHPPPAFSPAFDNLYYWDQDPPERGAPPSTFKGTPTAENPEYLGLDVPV
Chain of Ba/F3 ERBB2-V777L (P04626 whole entry V777L): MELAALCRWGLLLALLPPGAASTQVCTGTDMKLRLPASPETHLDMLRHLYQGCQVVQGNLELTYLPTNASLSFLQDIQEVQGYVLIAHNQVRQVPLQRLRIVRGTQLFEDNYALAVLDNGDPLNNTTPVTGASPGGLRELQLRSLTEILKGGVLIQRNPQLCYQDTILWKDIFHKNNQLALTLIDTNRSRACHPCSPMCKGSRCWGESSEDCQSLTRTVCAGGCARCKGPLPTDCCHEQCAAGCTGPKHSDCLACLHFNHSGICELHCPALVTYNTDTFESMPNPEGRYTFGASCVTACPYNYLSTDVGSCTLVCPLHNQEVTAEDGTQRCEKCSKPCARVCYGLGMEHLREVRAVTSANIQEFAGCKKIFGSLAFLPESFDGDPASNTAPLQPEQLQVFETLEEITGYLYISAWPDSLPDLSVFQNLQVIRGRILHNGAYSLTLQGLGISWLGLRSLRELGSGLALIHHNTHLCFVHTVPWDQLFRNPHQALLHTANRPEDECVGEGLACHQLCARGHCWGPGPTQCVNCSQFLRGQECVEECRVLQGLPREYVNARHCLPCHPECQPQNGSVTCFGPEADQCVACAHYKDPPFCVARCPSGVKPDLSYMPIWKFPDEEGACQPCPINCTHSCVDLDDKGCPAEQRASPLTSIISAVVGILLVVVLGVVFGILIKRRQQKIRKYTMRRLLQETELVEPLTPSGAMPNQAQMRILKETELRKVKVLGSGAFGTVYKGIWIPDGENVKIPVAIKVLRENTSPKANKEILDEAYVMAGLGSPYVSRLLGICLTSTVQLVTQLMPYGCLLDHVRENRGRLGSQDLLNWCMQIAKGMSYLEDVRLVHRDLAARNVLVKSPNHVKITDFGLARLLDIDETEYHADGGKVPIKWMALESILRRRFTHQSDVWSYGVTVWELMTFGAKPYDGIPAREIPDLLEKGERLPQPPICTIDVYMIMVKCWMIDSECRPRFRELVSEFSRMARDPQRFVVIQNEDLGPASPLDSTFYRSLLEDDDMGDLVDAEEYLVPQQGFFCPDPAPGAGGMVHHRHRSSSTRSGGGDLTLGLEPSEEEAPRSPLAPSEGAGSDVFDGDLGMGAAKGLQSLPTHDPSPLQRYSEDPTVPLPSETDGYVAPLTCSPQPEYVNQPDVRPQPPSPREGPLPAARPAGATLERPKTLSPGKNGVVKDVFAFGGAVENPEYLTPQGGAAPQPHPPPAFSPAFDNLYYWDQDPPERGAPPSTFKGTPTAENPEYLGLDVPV
Chain of Ba/F3 ERBB2-L755S (P04626 whole entry L755S): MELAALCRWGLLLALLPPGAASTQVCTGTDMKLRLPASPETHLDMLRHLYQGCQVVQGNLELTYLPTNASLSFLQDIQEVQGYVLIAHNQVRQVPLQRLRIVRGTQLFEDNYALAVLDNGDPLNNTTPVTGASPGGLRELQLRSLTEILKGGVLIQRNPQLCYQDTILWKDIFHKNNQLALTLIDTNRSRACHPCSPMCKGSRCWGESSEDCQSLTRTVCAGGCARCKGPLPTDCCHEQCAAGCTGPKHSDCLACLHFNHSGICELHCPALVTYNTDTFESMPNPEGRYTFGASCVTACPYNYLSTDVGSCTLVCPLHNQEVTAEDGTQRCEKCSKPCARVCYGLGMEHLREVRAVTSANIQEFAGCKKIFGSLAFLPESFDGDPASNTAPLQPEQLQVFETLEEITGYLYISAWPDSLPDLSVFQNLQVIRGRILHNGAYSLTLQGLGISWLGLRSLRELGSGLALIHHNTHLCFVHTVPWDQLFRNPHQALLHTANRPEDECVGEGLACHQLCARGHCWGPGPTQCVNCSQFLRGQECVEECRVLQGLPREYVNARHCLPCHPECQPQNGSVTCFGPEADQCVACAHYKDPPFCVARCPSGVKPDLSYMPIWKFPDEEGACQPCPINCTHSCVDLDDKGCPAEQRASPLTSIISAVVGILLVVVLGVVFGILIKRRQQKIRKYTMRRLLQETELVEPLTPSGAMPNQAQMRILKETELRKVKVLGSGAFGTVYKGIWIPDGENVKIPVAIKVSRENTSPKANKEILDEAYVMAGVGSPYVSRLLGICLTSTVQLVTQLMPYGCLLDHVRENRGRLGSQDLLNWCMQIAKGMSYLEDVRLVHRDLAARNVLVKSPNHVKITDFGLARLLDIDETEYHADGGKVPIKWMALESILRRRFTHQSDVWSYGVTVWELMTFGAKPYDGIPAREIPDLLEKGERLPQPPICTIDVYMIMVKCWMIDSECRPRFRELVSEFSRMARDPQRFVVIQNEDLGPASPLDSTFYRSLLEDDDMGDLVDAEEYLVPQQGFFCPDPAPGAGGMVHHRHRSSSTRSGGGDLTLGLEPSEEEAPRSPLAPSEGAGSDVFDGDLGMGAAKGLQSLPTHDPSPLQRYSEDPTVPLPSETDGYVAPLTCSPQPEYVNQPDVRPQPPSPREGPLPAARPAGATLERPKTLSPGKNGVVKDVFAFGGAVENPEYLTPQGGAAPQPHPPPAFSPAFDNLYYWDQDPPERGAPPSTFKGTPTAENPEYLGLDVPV

| IC50 (BT-474) [µM] | IC50 (A431) [µM] | IC50 (MDA-MB-175VII) [µM] | SMILES | GI50 (Ba/F3 ERBB2 wt) [µM] | GI50 [1] [µM] | GI50 (Ba/F3 ERBB2-G776VC) [µM] | GI50 [2] [µM] | GI50 [3] [µM] | GI50 (Ba/F3 ERBB2-V777L) [µM] | GI50 (Ba/F3 ERBB2-T798M) [µM] | GI50 (Ba/F3 ERBB2-L755S) [µM] | GI50 (Ba/F3 ERBB2-L869R) [µM] | GI50 (Ba/F3 EGFR wt) [µM] |
| --- | --- | --- | --- | --- | --- | --- | --- | --- | --- | --- | --- | --- | --- |
| 0.0197 | 1.14 |  | C=C1CCN(c2ccc3ncnc(Nc4ccc(Oc5ccc(C)nc5)c(C)c4)c3c2)C1=O [Compound 3, 1-[4-([3-methyl-4-[(6-methylpyridin-3-yl)oxy]phenyl]amino)quinazolin-6-yl]-3-methylidenepyrrolidin-2-one] | 0.011 | 0.202 | 0.04 | 0.013 | 0.0038 | 0.0047 | 0.656 | 0.172 | 0.047 |  |
|  | > 10 | 0.089 | Cc1cc(Nc2ncnc3ccc(NC4=NC(C)(C)CO4)cc23)ccc1Oc1ccn2ncnc2c1 [Tucatinib, tucatinib, reference compound] |  |  |  |  |  |  |  |  |  | > 10 |

— patent US20240116921A1, “LACTAM (HETERO)[…] DERIVATIVES AS INHIBITORS OF ERBB2” (EnLiven Therapeutics, Inc., priority 2020, published 2024)
